Test results: patent publication US11369662B2 (The Medical College of Wisconsin, Inc., priority 2014, dated 2022)
Several values for one entry are separate records, joined by “and”; a condition that tells them apart may be missing. Identical values can stand only once. Marks after values point to notes of the source that are not given here. Non-standard residues stand in square brackets, D forms with d. Residues, ends and D or L forms follow the SMILES beside them. sY = N[C@@H](Cc1ccc(OS(=O)(=O)O)cc1)C(=O)O

Tests used:
CXCL122 = target: T1, CXCL122 (Homo sapiens, UniProt P48061, A86C/L57C); test: 2D NMR (1H-15N HSQC) titration of CXCR4 peptides into CXCL122; type: binding; conditions: for ΔG: ΔG = −RT ln Kd @ 298 K
T1 construct: made in house
Protocol: (§1) NMR spectroscopy. All NMR spectra were acquired on a Bruker DRX 600 MHz spectrometer equipped with a ^1H, ^15N, ^13C TXI cryoprobe at 298 K. Experiments were performed with either 50 μM [U-^15N]-CXCL12WT, -CXCL121, or -CXCL122 proteins in a solution containing 25 mM deuterated MES (pH 6.8), 10% (v/v) D2O, and 0.02% (w/v) NaN3. Full-length CXCR41-38 peptide titrations required 20 μM [U-^15N]-CXCL121 and -CXCL122 protein samples. Sulfated CXCR4 peptides were reconstituted at 100 mM in 25 mM deuterated MES, 10% (v/v) D2O, and 0.02% (w/v) NaN3 buffer. Unsulfated CXCR4 peptides were similarly reconstituted to 15 mM. Two separate 4ISIYTSD10 (SEQ ID NO:8) peptide samples were reconstituted at 10 mM and 15 mM peptide in 25 mM deuterated MES, 10% (v/v) D20, 0.02% (w/v) NaN3 buffer, from lyophilized powder.
(§2) Total peptide additions differed for individual peptide titrations but ranged from 0-160 equivalencies. Spectra were processed using in-house scripts and chemical shift tracking was performed using CARA software. Combined ^1H/^15N chemical shift perturbations were calculated as ((5 ΔδH)^2+(ΔδNH)^2)^0.5, where δH and δNH are the amide proton and nitrogen chemical shifts, respectively. Equilibrium dissociation constants (Kd) were determined by non-linear fitting of the combined ^1H/^15NH chemical shift perturbations as a function of peptide concentration to a single-site quadratic equation. For a given interaction, residues with the largest chemical shift perturbations were fitted individually. The resulting Kd values and their respective fitting errors were then averaged to produce the reported affinity and standard deviation for that interaction.

CXCL12WT [1] = target: T2, CXCL12WT (Homo sapiens, UniProt P48061); test: 2D NMR (1H-15N HSQC) titration of CXCR4 peptides into CXCL12WT; type: binding; conditions: for ΔG: ΔG = −RT ln Kd @ 298 K
T2 construct: made in house
Protocol: as §1, §2

CXCL121 = target: T3, CXCL121 (Homo sapiens, UniProt P48061, I79C/L76C); test: 2D NMR (1H-15N HSQC) titration of CXCR4 peptides into CXCL121; type: binding; conditions: for ΔG: ΔG = −RT ln Kd @ 298 K
T3 construct: made in house
Protocol: as §1, §2

CXCL12WT dimerization = target: T4, CXCL12WT dimerization (Homo sapiens, UniProt P48061); test: Intrinsic tryptophan fluorescence polarization assay of CXCL12WT dimerization; type: binding; conditions: for coupling energy linking CXCL12 dimerization to sTyr21 pocket binding: thermodynamic cycle
T4 construct: made in house
Protocol: Fluorescence polarization assay. Fluorescence polarization (FP) assays were performed on a PTI spectrofluorometer equipped with automated polarizers, using a time base polarization method provided by the program Felix32. […] Experiments were performed in duplicate and the reported dimerization Kd values reflect the average of both experiments.

CXCL12WT [2] = target: T2, CXCL12WT; conditions: ΔG = −RT ln Kd @ 298 K; calculated from Veldkamp et al. (32); cited from earlier work
NALM6 cells = test: NALM6 chemotaxis (Boyden chamber); type: cell-based; conditions: 90 min stimulation; relative to CXCL12WT
Protocol: NALM6 chemotaxis. NALM6 cells were grown in RPMI-1640 supplemented with 10% FBS, 100 U/mL penicillin-streptomycin, 2 mM glutamine, 50 μM […], non-essential amino acids, 1 mM Na-pyruvate and 25 mM HEPES buffer (pH 7.3). Chemotaxis assays were performed in triplicate in 48-well Boyden chambers (NeuroProbe), using 5 μm pore-sized polyvinylpyrrolidone-free polycarbonate membranes. […] Cells ([…] per well) resuspended in chemotaxis medium were added to the upper well and incubated for 90 min at 37° C. in 5% CO2 atmosphere. Cells were removed from the upper part of the membrane with a rubber policeman. Cells attached to the lower side of the membrane were fixed and stained as described. Migrated cells were counted in five randomly selected fields of 1000-fold magnification.
NALM6 chemotaxis. NALM6 cells were grown in RPMI-1640 supplemented with 10% FBS, 100 U/mL penicillin-streptomycin, 2 mM glutamine, 50 μM 2-mercaptoethanol, non-essential amino acids, 1 mM Na-pyruvate and 25 mM HEPES buffer (pH 7.3). Chemotaxis assays were performed in triplicate in 48-well Boyden chambers (NeuroProbe), using 5 μm pore-sized polyvinylpyrrolidone-free polycarbonate membranes. […] Migrated cells were counted in five randomly selected fields of 1000-fold magnification.

MiaPaCa2 cells = test: MiaPaCa2 chemotaxis (Transwell); type: cell-based; conditions: 6 h stimulation; relative to CXCL12WT
Protocol: MiaPaCa2 chemotaxis. Chemotactic migration of pancreatic cancer MiaPaCa2 cells was performed as previously described using Transwell plates coated with 15 ug/ml collagen. Briefly, MiaPaCa2 cells were serum starved for 2 hours, lifted using enzyme-free dissociation buffer, washed and then counted using a hemocytometer. 100,000 cells in 10 uL of serum free media were plated into the top chamber of each Transwell. The bottom chamber of each Transwell contained each stimulant in 500 uL serum free media. MiaPaCa2 cells were allowed to migrate for 6 hours, after which the cells remaining on the top of the chamber were swabbed out. Plates were then fixed in 4% paraformaldehyde and stained with DAPI. Migrated cells were visualized and counted by fluorescence microscopy, with 5 representative high-powered fields taken per well.

U-937 cells = test: Agarose microdroplet assay of U-937 migration; type: cell-based
Protocol: Agarose microdroplet assay. The agarose microdroplet assay was performed to determine U-937 cellular migration, as previously described. 0.5×10^6 cells/ml U-937 target cells were harvested and washed in HBSS. Cells were spun at 2,000 rpm and were transferred to a graduated 15 ml glass conical tube. The cell concentration was adjusted in agarose medium, prepared from 2% low melting temperature Seaplaque agarose and medium containing 15% FBS, using a 1:4 volume-to-volume dilution. A 1 μl agarose droplet containing 1-10^5 target cells was placed in the center of each well of a 96-well flat-bottom tissue culture plate, in triplicate, using a gastight 0.05 ml Hamilton syringe (Hamilton Company, Reno, Nev.). Droplets were allowed to harden at 4° C. for 20 min. 200 μl chilled test media was applied to each well. […] The plate was incubated for 18-24 h at 37° C. and 5% CO2. Following incubation, the radius of each droplet was determined and target cell migration was measured at four directional points 900 from one another, using an inverted light microscope equipped with a gridded eyepiece, at 40× total magnification. Percent inhibition of each sample was quantified. The plate was incubated for an additional 24 h to measure recovery, and viability was determined by trypan blue exclusion.
Agarose microdroplet assay. The agarose microdroplet assay was performed to determine U-937 cellular migration, as previously described {AdeCXCL121an, 1980 #1609}. 0.5×10^6 cells/ml U-937 target cells were harvested and washed in HBSS. Cells were spun at 2,000 rpm and were transferred to a graduated 15 ml glass conical tube. […] Following incubation, the radius of each droplet was determined and target cell migration was measured at four directional points 900 from one another, using an inverted light microscope equipped with a gridded eyepiece, at 40× total magnification. Percent inhibition of each sample was quantified. The plate was incubated for an additional 24 h to measure recovery, and viability was determined by trypan blue exclusion.

THP-1 cells = test: THP-1 chemotaxis (Transwell); type: cell-based; conditions: 3 h stimulation
Protocol: THP-1 chemotaxis. Chemotaxis experiments were performed using Tranwell ([…]; Costar) in 24-well format. […] THP-1 cells were washed twice and […] cells were added to the upper chamber. Plates were incubated for 3 h at 37° C., 5% CO2. Following incubation, Transwell membranes were removed and cells that migrated into the lower chamber were counted using a TC-10 Automated Cell Counter (BioRad) and hemocytometer. The chemotactic index was calculated as the difference in migrated cell number between those exposed to chemokine and the vehicle control.

KG1a cells = test: Apoptosis assays in KG1a cells expressing CXCR4-YFP; type: cell-based, human; conditions: 100 ng/ml
Protocol: Apoptosis assays. KG1a (human acute myelogenous leukemia) cells were assayed for CXCL12-dependent apoptosis as previously described. Briefly, CXCR4 expression on KG1a cells was achieved via transient transfection with a plasmid encoding a CXCR4-YFP fluorescent fusion protein. […] Apoptosis was assayed by staining cells with APC-conjugated annexin V to detect cell-surface phosphatidyl serine (BD Biosciences) or Alexaflour-647-conjugated antibody to detect cleaved PARP (BD Biosciences), and the percentage of YFP+ cells undergoing apoptosis was determined by flow cytometry.

[3] = unsulfated vs sulfated Tyr7 peptide

| Compound | ΔG (CXCL122) | ΔG (CXCL12WT [1]) [kcal/mol] | ΔG (CXCL121) [kcal/mol] | other results |
| --- | --- | --- | --- | --- |
| CC[C@H](C)[C@H](NC(C)=O)C(=O)N[C@@H](CO)C(=O)N[C@H](C(=O)N[C@@H](Cc1ccc(OS(=O)(=O)O)cc1)C(=O)N[C@H](C(=O)N[C@@H](CO)C(=O)N[C@@H](CC(=O)O)C(N)=O)[C@@H](C)O)[C@@H](C)CC [4ISIsYTSD10] (Ac-ISI[sY]TSD-NH2) | -4.65 kcal/mol | -3.22 | -3.02 |  |
| CC(=O)N[C@@H](CO)C(=O)N[C@@H](CC(=O)O)C(=O)N[C@@H](CC(N)=O)C(=O)N[C@@H](Cc1ccc(OS(=O)(=O)O)cc1)C(=O)N[C@H](C(=O)N[C@@H](CCC(=O)O)C(=O)N[C@@H](CCC(=O)O)C(N)=O)[C@@H](C)O [9SDNsYTEE15] (Ac-SDN[sY]TEE-NH2) | -4.87 kcal/mol | -4.09 | -3.74 |  |
| CSCC[C@H](NC(=O)[C@H](CO)NC(=O)[C@H](CC(=O)O)NC(=O)[C@H](Cc1ccc(OS(=O)(=O)O)cc1)NC(=O)[C@H](CC(=O)O)NC(=O)CNC(=O)[C@H](CO)NC(C)=O)C(N)=O [18SGDsYDSM24] (Ac-SGD[sY]DSM-NH2) | -5.01 kcal/mol | -3.74 | -3.81 | binding to CXCL122 relative to CXCL12WT or CXCL121 (CXCL122; fold stronger): 20 fold; ΔGbind (CXCL122; pathway 2: binding to dimerized CXCL12, 298 K): −5.0 kcal mol^−; binding to CXCL122 relative to the unsulfated variant (CXCL122; sulfated vs unsulfated Tyr21 peptide): four-fold stronger; increase of CXCL12 dimerization affinity (CXCL12WT dimerization; by sTyr21 sulfopeptide): eight-fold; coupling energy linking CXCL12 dimerization to sTyr21 pocket binding (CXCL12WT dimerization; first value): −1.2 kcal mol^−; coupling energy linking CXCL12 dimerization to sTyr21 pocket binding (CXCL12WT dimerization; second value): −1.0 kcal mol^−; ΔGbind (CXCL121; pathway 1: binding to CXCL12 before dimerization, 298 K): −3.8 kcal mol^− |
| CC[C@H](C)[C@H](NC(=O)CNC(=O)[C@H](CCC(=O)O)NC(=O)[C@H](CCSC)NC(=O)[C@H](CCSC)NC(=O)CN)C(=O)N[C@@H](CO)C(=O)N[C@H](C(=O)N[C@@H](Cc1ccc(O)cc1)C(=O)N[C@H](C(=O)N[C@@H](CO)C(=O)N[C@@H](CC(=O)O)C(=O)N[C@@H](CC(N)=O)C(=O)N[C@@H](Cc1ccc(O)cc1)C(=O)N[C@H](C(=O)N[C@@H](CCC(=O)O)C(=O)N[C@@H](CCC(=O)O)C(=O)N[C@@H](CCSC)C(=O)NCC(=O)N[C@@H](CO)C(=O)NCC(=O)N[C@@H](CC(=O)O)C(=O)N[C@@H](Cc1ccc(O)cc1)C(=O)N[C@@H](CC(=O)O)C(=O)N[C@@H](CO)C(=O)N[C@@H](CCSC)C(=O)N[C@@H](CCCCN)C(=O)N[C@@H](CCC(=O)O)C(=O)N1CCC[C@H]1C(=O)N[C@@H](C)C(=O)N[C@@H](Cc1ccccc1)C(=O)N[C@@H](CCCNC(=N)N)C(=O)N[C@@H](CCC(=O)O)C(=O)N[C@@H](CCC(=O)O)C(=O)N[C@@H](CC(N)=O)C(=O)N[C@@H](C)C(=O)N[C@@H](CC(N)=O)C(=O)N[C@@H](Cc1ccccc1)C(=O)N[C@@H](CC(N)=O)C(=O)N[C@@H](CCCCN)C(=O)O)[C@@H](C)O)[C@@H](C)O)[C@@H](C)CC [CXCR41-38] | -8.24 kcal/mol |  | -7.43 | ΔG (kcal mol^−1) (CXCL12WT [2]): −7.29* kcal mol^−1 |
| Ac-ISIYTSD-NH2 [4ISIYTSD10] | -4.60 kcal/mol | -3.71 | -4.03 | affinity for CXCL12WT relative to the sTyr7 sulfopeptide (CXCL12WT [1]; [3]): two-fold higher affinity; binding to CXCL121 relative to the sTyr7 sulfopeptide (CXCL121; [3]): roughly five-fold stronger |
| Ac-SDNYTEE-NH2 [9SDNYTEE15] | -4.74 kcal/mol | -3.65 | -3.50 |  |
| Ac-SGDYDSM-NH2 [18SGDYDSM24] | -4.2 kcal/mol and -4.20 kcal/mol | -3.50 | -3.85 |  |
| CXCL121: constitutively monomeric CXCL12 variant with L55C and I58C substitutions (SEQ ID NO:2) |  |  |  | extension of the effective chemotactic dose (NALM6 cells): at least 10 fold; extension of the effective chemotactic dose (MiaPaCa2 cells): at least 10 fold; effect on U-937 cell migration (U-937 cells; all tested concentrations, 18-24 h, serum-containing media): significantly enhanced migration; concentration of peak migration enhancement (U-937 cells; bell-shaped dose response): 25 nM; extension of the effective chemotactic dose (THP-1 cells): at least 10 fold; cleavage of PARP (KG1a cells): significantly greater than CXCL122 |
